# Data: paper PMC7041945, “Misfolded proteins bind and activate death receptor 5 to trigger apoptosis during unresolved endoplasmic reticulum stress” (eLife, 2020)
# Experiments:
# Format in all cases: cell-based, Homo sapiens
# [1] = system: caspase 8 in HCT116 lysates; assay: Caspase 8 activity (caspase glo 8) of cell lysates / IP inputs; conditions: HCT116; for Caspase 8 activity, fold change relative to GFP: AVG (n = 3 tech reps); for AVG fold change relative to GFP: average over lysate dilutions
# Experimental: Cells harvested from a 6-well plate were resuspended in 100 μl of lysis buffer (30 mM HEPES pH 7.2, 150 mM NaCl, 1% Triton X-100) and lysed via needle shearing (25G, 10 passes) followed by a 30 min incubation on ice. Supernatant was collected after centrifuging at 1000xg for 5 min. For the caspase activity assay, 10 μl of supernatant diluted with lysis buffer (1:25, 1:50, 1:100 to stay within linear range of luminescence measurements) was incubated with 10 μl of the luminogenic caspase glo 8 substrate (Promega #PRG8200) in a 384-white walled plate (Corning 3574) for 45 min at RT before measuring luminescence on a Spectramax-M5 plate reader.
# DR5 = assay: GFP immunoprecipitation: DR5 (FADD, caspase 8) recovered with GFP-tagged protein, Western blot; conditions: for fraction IP'ed: beads/input
# Experimental: 15 cm dishes were seeded with 4 million HCT116 cells and allowed to recover for 18 hr prior to transfection. Samples were then transfected for 24 hr with the GFP-tagged ER trafficked protein, cytosolic GFP, or empty vector. To harvest apoptotic and living cells for each sample, all media and washes were collected. Cells were scraped in 2 ml of cold PBS and combined with the media and washes. Samples were centrifuged to pellet cells, washed with 1 ml cold PBS, and flash frozen in liquid N2 prior to lysis.
# The cell pellets were resuspended in 750 μl of 30 mM HEPES pH 7.2, 150 mM NaCl, 1% Triton X-100 with 1x Roche protease inhibitor cocktail (if used subsequently for caspase glo 8 assay) or with 5x Roche protease inhibitor cocktail (if used for immunoblotting). The cells were lysed by mechanical shearing through a 25G needle for 13–15 plunges followed by incubation on ice for 30 min. The lysate was centrifuged at 2000xg for 5 min to remove debris and then incubated with 30 μl of GFP-Trap magnetic agarose beads (Chromotek gtma-20) for 4 hr at 4°C. The beads were then washed with 750 μl of lysis buffer for 10 min at 4°C for three rounds.
# For Western blots, samples were eluted by adding 35 μl of non-reducing SDS gel loading buffer (50 mM Tris-HCl (pH 6.8), 2% SDS, 0.1% bromophenol blue, 10% glycerol) and incubated for 10 min at 70°C. The beads were then magnetically removed from the eluted sample before adding DTT to a final concentration of 25 mM. The entire sample was loaded onto the gel and immunoblotted for DR5, caspase 8, and GFP, in that order.
# HCT116 cells = assay: Annexin V (and SytoxBlue) flow cytometry for apoptosis; conditions: for Annexin V +, Sytox Blue + cells / Annexin V +, Sytox Blue - cells / Annexin V -, Sytox Blue - cells: transfected 24 hr
# Experimental: Cells seeded in a 6-well plate were transfected with the specified plasmid for 24 hr and harvested via trypsinization in complete media to allow a 30 min recovery at 37°C. The samples were then centrifuged at 500xg for 5 min and resuspended In 150 μl of a 1:20 dilution of Annexin V-AlexaFluor 647 conjugate (Thermo Scientific #A23204). Samples were transferred to a 96-well U-bottom plate and incubated in the dark for 15 min at RT. The distribution of apoptotic cells was determined by flow cytometry on a BD LSR II.
# [2] = GFP IP, HCT116, average of Rep 1 and Rep 2, SEM in separate column
# [3] = GFP IP, HCT116, band intensity, Rep 1
sequence,measurement,setting,value
"FTWRYQPEGGRDAISIFHYA [MPZ-ecto peptide-eGFP, expressed construct: MPZ ectodomain replaced by the MPZ-ecto peptide, GFP-tagged]","Caspase 8 activity, fold change relative to GFP","[1]; Rep 1, ecto 400 ng, YYEE and Arom-to-E 200 ng",2.6
same,"Caspase 8 activity, fold change relative to GFP","[1]; Rep 2, ecto 400 ng, YYEE and Arom-to-E 200 ng",2.183
same,AVG fold change relative to GFP,[1]; Rep 2,2.183 fold
same,"Caspase 8 activity, fold change relative to GFP","[1]; Rep 3, ecto 400 ng, YYEE and Arom-to-E 200 ng",2.309
same,AVG fold change relative to GFP,[1]; Rep 3,2.309 fold
same,"Caspase 8 activity, fold change relative to GFP, avg of biological replicates","[1]; avg of n = 3 biol rep, ecto 400 ng, YYEE and Arom-to-E 200 ng, SEM of n = 3 in own column",2.364
same,"% IP'ed, average",DR5; [2],7.7348%
same,"fraction IP'ed, average",DR5; [2],0.07735
same,input (*dilution factor),"DR5; GFP IP, HCT116, band intensity, background subtracted, divided by dilution factor 0.1, Rep 2",64608140
same,beads (*dilution factor),"DR5; GFP IP, HCT116, band intensity, background subtracted, divided by dilution factor 0.25, Rep 2",5226200
same,beads (*diluton factor),DR5; [3],10106176
same,input (*dilution factor),DR5; [3],136930440
same,fraction IP'ed,"DR5; GFP IP, HCT116, Rep 1",0.07381
same,fraction IP'ed,"DR5; GFP IP, HCT116, Rep 2",0.08089
same,Mean ± SEM of fraction IP'ed,"DR5; GFP IP, HCT116, n=2, from unpaired t test sheet","0.07735 ± 0.003543, n=2"
same,DR5 complex proteins in GFP immunoprecipitates,"DR5; HCT116, 24 hr post-transfection",enriched for DR5 relative to the Glu-containing mutant peptides
same,DR5 beads (*diluton factor),"DR5; Rep 1, DR5 blot densitometry of beads (GFP IP), background subtracted, adjusted for dilution factor 0.25",10106176
same,DR5 input (*dilution factor),"DR5; Rep 1, DR5 blot densitometry of input, background subtracted, adjusted for dilution factor 0.1",136930440
same,DR5 fraction IP'ed,"DR5; Rep 1, GFP IP, beads over input",0.07381
same,annexin V staining,"HCT116 cells; HCT116, 24 hr, relative to empty vector or WT",increased annexin V staining relative to the empty vector
same,"Annexin V +, Sytox Blue + cells",HCT116 cells; + z-VAD,8.37% of cells
same,"Annexin V +, Sytox Blue - cells",HCT116 cells; + z-VAD (20 μm [sic]),3.77% of cells
same,"Annexin V -, Sytox Blue - cells",HCT116 cells; + z-VAD (20 μm [sic]),86.3% of cells
same,"Annexin V +, Sytox Blue + cells",HCT116 cells; no z-VAD,19.1% of cells
same,"Annexin V +, Sytox Blue - cells",HCT116 cells; no z-VAD,11.5% of cells
same,"Annexin V -, Sytox Blue - cells",HCT116 cells; no z-VAD,65.3% of cells
